From ChEMBL document CHEMBL1134435, “Synthesis of novel sialylmimetics as biological probes” (Bioorg Med Chem Lett, 2001) come the findings set out here.

The term IC50 denotes the concentration needed to halve the response being measured. The low end stands for greater potency, the high end for weaker potency.

In one assay the target is T1, E-selectin (Homo sapiens, UniProt P16581).
T1 sequence (P16581 whole entry): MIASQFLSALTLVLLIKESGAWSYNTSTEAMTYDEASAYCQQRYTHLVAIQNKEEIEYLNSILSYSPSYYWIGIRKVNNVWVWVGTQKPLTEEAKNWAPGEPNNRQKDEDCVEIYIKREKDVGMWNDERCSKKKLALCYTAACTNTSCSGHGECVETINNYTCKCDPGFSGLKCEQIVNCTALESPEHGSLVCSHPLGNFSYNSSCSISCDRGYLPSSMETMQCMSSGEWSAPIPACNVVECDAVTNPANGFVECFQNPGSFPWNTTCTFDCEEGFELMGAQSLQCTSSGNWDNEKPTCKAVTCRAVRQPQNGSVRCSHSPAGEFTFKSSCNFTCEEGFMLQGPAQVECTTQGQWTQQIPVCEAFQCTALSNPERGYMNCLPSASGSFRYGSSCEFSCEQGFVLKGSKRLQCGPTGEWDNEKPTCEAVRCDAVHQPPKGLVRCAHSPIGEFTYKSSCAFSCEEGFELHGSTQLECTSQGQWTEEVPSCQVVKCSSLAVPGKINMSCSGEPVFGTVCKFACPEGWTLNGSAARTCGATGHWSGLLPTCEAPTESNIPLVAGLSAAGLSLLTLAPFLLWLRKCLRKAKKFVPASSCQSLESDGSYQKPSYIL
Nature of the assay: Inhibitory concentration against E-selectin.

Assay [1] has as its system Rotavirus. Nature of the assay: Inhibitory concentration against NCDV (bovine) strain of rotavirus. The format is functional, organism-based.
Assay [2] deals with Rotavirus. Nature of the assay: Inhibitory concentration against Wa (human) strain of rotavirus. Type of assay: functional, organism-based.

The molecule `C[C@@H]1O[C@@H](O[C@@H]2CCCC[C@H]2O[C@@H]2O[C@@H](CO)[C@H](O)[C@H](OCC(=O)O)[C@@H]2O)[C@@H](O)[C@@H](O)[C@@H]1O` had a half-maximal inhibitory concentration (IC50) against E-selectin of 500 µM.

For `CC(=O)N[C@H]1[C@H]([C@H](O)[C@H](O)CO)O[C@@](O[C@H]2[C@@H](O)[C@@H](CO)O[C@@H](O[C@@H]([C@H](O[C@@H]3O[C@@H](C)[C@@H](O)[C@@H](O)[C@@H]3O)[C@H](C=O)NC(C)=O)[C@H](O)CO)[C@@H]2O)(C(=O)O)C[C@@H]1O` [SIALYL LEWIS X], half-maximal inhibition on E-selectin (IC50) required 700 µM.

Turning to `COC1OC(CSC(C)C(=O)O)C(O)C(O)C1O` (centres undefined), the half-inhibitory concentration (IC50) with Rotavirus [1] and in the assay on Rotavirus [2] was greater than 25000 µM throughout.
